How the values were obtained:
[1] = molecular target: T1, photosystem II (PS II) (Spinacia oleracea, UniProt P69560); test: Measurement of the PS II activity in thylakoid membranes (DCPIP reduction); type: biochemical; settings: 100 μM test compound, spinach thylakoid membranes, DCPIP 120 μM, 10 min at 22° C. with exposure to light; for inhibition at 100 µM (stock): read-out: Effect (inhibition of PS II activity)
T1 construct: the chloroplasts were osmotically ruptured and the thylakoid membranes were then obtained by centrifugation; from tissue; host or cells: fresh spinach leaves; thylakoid membranes isolated from chloroplasts
Procedure: Cooled fresh spinach leaves were comminuted and homogenized in 50 mM phosphate buffer, pH 6.8. 10 mM KCl, 0.34 M sucrose (sucrose buffer) (blender, 1 g of plant material/ml). The homogenate was subsequently filtered through 4 layers of Miracloth and the chloroplasts were isolated by centrifugation, i.e. 10 min of centrifugation at 4400×g (4° C.). The sediment was suspended in 25 ml of sucrose buffer and re-centrifuged for 10 min at 4400×g (4° C.). The sediment was then suspended in 40 ml of 50 mM phosphate buffer, pH 6.8, 10 mM KCl, without sucrose. In this step, the chloroplasts were osmotically ruptured and the thylakoid membranes were then obtained by centrifugation (10 min, 4400×g, 4° C.). The membrane sediment was finally suspended in 20 ml of 50 mM phosphate buffer, pH 6.8, 10 mM KCl. Following protein determination and activity determination, the membrane suspension was divided into aliquots and frozen in liquid nitrogen. The aliquots were stored at −80° C. Under these conditions, the photosystem II preparation was storage stable for at least three months. The activity determination of photosystem II (PS II) was then carried out using the following test principle:
The electron transfer from PS II to an artificial electron acceptor, 2,6-dichlorophenolindophenol (DCPIP), was measured with exposure to light. The concentration of the blue oxidized form of DCPIP was determined spectrophotometrically at wavelength λ=595 nm. […] The activity determination was carried out in microtiter plates (96 cavities) in a reaction volume of 200 μl. Here, 155 μl of dilute membrane suspension were initially charged in 50 mM of phosphate buffer, pH 6.8, 10 mM KCl. Depending on the activity of the PS II preparation, the dilution was adjusted such that the measurement of the decrease in absorption (λ=595 nm) was linear for at least 10 min. In each case 5 μl solution of the test compounds of a concentration of 100 μM in DMSO were added to the enzyme suspension; controls contained 5 μl DMSO; the final concentration of DMSO in the reaction batch was thus 2.5% (v/v); this concentration had no adverse effect on the enzymatic activity. On each microtiter plate, a known PS II inhibitor, for example metribuzin, was used as standard, which allowed the quality of the PS II test to be assessed. The reaction was started by addition of 40 μl DCPIP solution (600 μM in distilled water); the final concentration of DCPIP was 120 μM. Measurement of absorption was carried out over a period of 10 min at 22° C. and with exposure to light. Using metribuzin as comparative substance, the results for the efficacy of the compounds of the general formula (I) at 100 μM are stated in the table below using the following classification: ++++ (inhibition≥90%), +++ ([…]≥70%), ++ (70%>inhibition≥50%), + (50%>inhibition≥30%).

[2] = system: Stellaria media; test: Pre-emergence herbicidal action; type: in vivo; settings: after about 3 weeks; for pest or weed control at 320 g/ha: Stellaria media, 504 h, read-out: Stellaria media, herbicidal effect scored visually; for Stellaria media, herbicidal effect scored visually: 1280 g/ha
Excerpt: (§1) Seeds of monocotyledonous and dicotyledonous weed plants and crop plants were placed in plastic or organic planting pots and covered with soil. The compounds of the invention, formulated in the form of wettable powders (WP) or as emulsion concentrates (EC), were then applied onto the surface of the covering soil as aqueous suspension or emulsion with addition of 0.5% additive at a water application rate of 600 l/ha (converted). After the treatment, the pots were placed in a greenhouse and kept under good growth conditions for the test plants. After about 3 weeks, the effect of the preparations was scored visually in comparison with untreated controls as percentages. For example, 100% activity=the plants have died, 0% activity=like control plants. Tables B1 to B15 below show the effects of selected compounds of the general formula (I) according to Tables I.1 to I.44 on various harmful plants and an application rate corresponding to 1280 g/ha or 320 g/ha, which were obtained by the experimental procedure mentioned above.

[3] = system: Matricaria inodora; test: Pre-emergence herbicidal action; type: in vivo; settings: after about 3 weeks
Excerpt: as §1

[4] = system: Viola tricolor; test: Pre-emergence herbicidal action; type: in vivo; settings: after about 3 weeks; for pest or weed control at 320 g/ha: Viola tricolor, 504 h, read-out: Viola tricolor, herbicidal effect scored visually
Excerpt: as §1

[5] = system: Setaria viridis; test: Post-emergence herbicidal action; type: in vivo; settings: about 3 weeks after treatment; for pest or weed control at 320 g/ha: Setaria viridis, 504 h, read-out: Setaria viridis, herbicidal activity rated visually
Procedure: (§2) Seeds of monocotyledonous and dicotyledonous weeds and crop plants were placed in sandy loam in plastic or wood-fiber pots, covered with soil and cultivated in a greenhouse under controlled growth conditions. 2 to 3 weeks after sowing, the test plants were treated at the one-leaf stage. The compounds of the invention, formulated in the form of wettable powders (WP) or as emulsion concentrates (EC), were then sprayed onto the green parts of the plants as aqueous suspension or emulsion with addition of 0.5% additive at a water application rate of 600 l/ha (converted). After the test plants had been kept in the greenhouse under optimum growth conditions for about 3 weeks, the activity of the preparations was rated visually in comparison to untreated controls. For example, 100% activity=the plants have died, 0% activity=like control plants. Tables A1 to A12 below show the effects of selected compounds of the general formula (I) according to Tables I.1 to I.44 on various harmful plants and an application rate corresponding to 1280 g/ha or 320 g/ha, which were obtained by the experimental procedure mentioned above.

[6] = system: Stellaria media; test: Post-emergence herbicidal action; type: in vivo; settings: Stellaria media, 504 h, 320 g/ha, about 3 weeks after treatment, read-out: Stellaria media, herbicidal activity rated visually
Procedure: as §2

[7] = system: Abutilon theophrasti; test: Post-emergence herbicidal action; type: in vivo; settings: about 3 weeks after treatment
Procedure: as §2

[8] = system: Viola tricolor; test: Post-emergence herbicidal action; type: in vivo; settings: 504 h, 320 g/ha, about 3 weeks after treatment, read-out: Viola tricolor, herbicidal activity rated visually
Procedure: as §2

[9] = system: Pharbitis purpurea; test: Post-emergence herbicidal action; type: in vivo; settings: 320 g/ha, about 3 weeks after treatment
Procedure: as §2

[10] = system: Polygonum convolvulus; test: Post-emergence herbicidal action; type: in vivo; settings: 320 g/ha, about 3 weeks after treatment
Procedure: as §2

[11] = system: Alopecurus myosuroides; test: Pre-emergence herbicidal action; type: in vivo; settings: 1280 g/ha, after about 3 weeks
Excerpt: as §1

[12] = system: Polygonum convolvulus; test: Pre-emergence herbicidal action; type: in vivo; settings: 1280 g/ha, after about 3 weeks
Excerpt: as §1

[13] = system: Setaria viridis; test: Pre-emergence herbicidal action; type: in vivo; settings: 1280 g/ha, after about 3 weeks
Excerpt: as §1

[14] = system: Poa annua; test: Pre-emergence herbicidal action; type: in vivo; settings: 1280 g/ha, after about 3 weeks
Excerpt: as §1

Row | inhibition at 100 µM (stock) [1] | Effect (inhibition of PS II activity) [1] | Structure (SMILES) | pest or weed control at 320 g/ha [2] | pest or weed control at 320 g/ha [4] | pest or weed control at 320 g/ha [5] | pest or weed control at 320 g/ha [6] | pest or weed control at 320 g/ha [8] | Stellaria media, herbicidal effect scored visually [2] | Matricaria inodora, herbicidal effect scored visually ([3]; 1280 g/ha) | Poa annua, herbicidal effect scored visually [14] | further results
1 | > 90% |  | COc1nsc(N2C(=O)C(C)=C(C)C2O)n1 (stereo not shown) [I.2-363, 3,4-Dimethyl-5-hydroxy-1-(3-methoxy-1,2,4-thiadiazol-5-yl)-1,5-dihydro-2H-pyrrol-2-one] | 100% | 80% | 100% | 90% | 100% |  |  |  | pest or weed control at 320 g/ha ([3]; Tripleurospermum inodorum, 504 h, 320 g/ha, read-out: Matricaria inodora, herbicidal effect scored visually): 90%; pest or weed control at 320 g/ha ([7]; Abutilon theophrasti, 504 h, 320 g/ha, read-out: Abutilon theophrasti, herbicidal activity rated visually): 90%; Pharbitis purpurea, herbicidal activity rated visually [9]: 80%; Polygonum convolvulus, herbicidal activity rated visually [10]: 100%
2 |  |  | CC1=C(Br)C(=O)N(c2nc(C)ns2)C1O (stereo not shown) [I.5-2] |  |  |  |  |  | 90% | 90% |  | Alopecurus myosuroides, herbicidal effect scored visually [11]: 80%; Viola tricolor, herbicidal effect scored visually ([4]; 1280 g/ha): 90%; Polygonum convolvulus, herbicidal effect scored visually [12]: 80%; Setaria viridis, herbicidal activity rated visually ([5]; 1280 g/ha): 80%; Abutilon theophrasti, herbicidal activity rated visually ([7]; 1280 g/ha): 80%
3 |  | +++ (90%≥inhibition≥70%) | CC1=C(C)C(O)N(c2nc(C(C)(C)C)ns2)C1=O (stereo not shown) [I.2-288] |  |  |  |  |  | 100% | 90% | 90% | Setaria viridis, herbicidal effect scored visually [13]: 100%
4 |  | +++ (90%≥inhibition≥70%) | CC1=C(C)C(O)N(c2nc(-c3ccccc3)ns2)C1=O (stereo not shown) [I.2-21] |  |  |  |  |  | 100% | 90% | 90% | Abutilon theophrasti, herbicidal activity rated visually ([7]; 320 g/ha): 100%
5 | > 90% |  | CCc1nsc(N2C(=O)C(C)=C(C)C2O)n1 (stereo not shown) [I.2-3, 3,4-Dimethyl-5-hydroxy-1-(3-ethyl-1,2,4-thiadiazol-5-yl)-1,5-dihydro-2H-pyrrol-2-one] | 90% | 100% | 80% | 80% | 100% |  |  |  | pest or weed control at 1280 g/ha ([3]; Tripleurospermum inodorum, 504 h, 1280 g/ha, read-out: Matricaria inodora, herbicidal effect scored visually): 100%
